From patent publication US4638070A, “Heterocyclic amino-alcohol derivatives” (Continental Pharma, priority 1980, dated 1987)

How the values were obtained:
[1] = system: guinea-pig ileum (barium chloride contractions); assay: Antispasmodic activity in vitro, contractions caused by barium chloride; conditions: added 15 minutes before spasm-producing agent
Protocol: (§1) (4) The antispasmodic activity was measured in vitro, on guinea-pig ileum, the contractions of which were caused by histammne (Hist.), acetylcholine (Achol) or barium chloride (BaCl2). The tested products were added to perfusion bath 15 minutes before the spasm-producing agents.
(§2) The dose is given in micograms (μg) per ml of bath causing complete spasm inhibition.

femoral artery = assay: Vasodilator activity, femoral artery (technique of perfused paw); assay type: in vivo; design: key: O: no action; +: slight activity; ++: effect equal to half the effect of papaverine; +++: effect equal to that of papaverine; ++++: effect higher than that of papaverine; conditions: intra-arterial, 30 mg/kg, anaesthetized dog, vs papaverine at same dose
Protocol: (3) The vasodilator activity was measured at the level of femoral artery on anaesthetized dog (technique of perfused paw). The tested substances were given intra-arterially at the rate of 30 mg/kg. Results are expressed with respect to papaverine tested at the same dose.
++: effect equal to half the effect of papaverine.
+++: effect equal to that of papaverine.
++++: effect higher than that of papaverine.

[2] = system: unanaesthetized, hypertension-suffering rat; assay: Antihypertensive activity (systolic arterial pressure), oral; assay type: in vivo; conditions: 60 mg/kg, hypertensive rat, 3 hours
Outline: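 Conscious hypertensive rats given compound orally at 60 mg/kg; systolic arterial pressure measured every 30 min for 2 h pre-dose and 3 h post-dose. Scored O (no fall), + (<10 mm Hg), ++ (10–20 mm Hg), +++ (>20 mm Hg).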

[3] = system: guinea-pig ileum (acetylcholine contractions); assay: Antispasmodic activity in vitro, contractions caused by acetylcholine; conditions: added 15 minutes before spasm-producing agent
Protocol: as §1, §2

[4] = Acute toxicity, oral, LD50 (Litchfield and Wilcoxon); conditions: mouse, in vivo, fasted male mice, confidence limits p=95% in brackets
Protocol: (1) The acute toxicity was determined on fasted male mice. The tested substances were orally administered and LD50 values (lethal dose for 50% of animals) were calculated according to the method of Litchfield and Wilcoxon (J. Pharmacol. exp. Ther. 96, 94-113, 1949). These LD50 values are given in mg/kg and also, when possible, with their confidence limits for p=95%.

[5] = system: guinea-pig ileum (histamine contractions); assay: Antispasmodic activity in vitro, contractions caused by histamine; conditions: added 15 minutes before spasm-producing agent
Protocol: as §1, §2

| Compound | ANTISPASMODIC ACTIVITY BaCl2 (dose causing complete spasm inhibition) [1] | VASODILATOR ACTIVITY (femoral artery) | ANTIHYPERTENSIVE ACTIVITY [2] | ANTISPASMODIC ACTIVITY ACHOL (dose causing complete spasm inhibition) [3] | LD50 [4] | ANTISPASMODIC ACTIVITY HIST. (dose causing complete spasm inhibition) [5] |
| --- | --- | --- | --- | --- | --- | --- |
| CC(NCCCCc1ccccc1)C(O)c1ccc2c(c1)CCCS2 (stereo not drawn) [No 2] | 16.7 μg per ml | ++++ | +++ (reduction higher than 20 mm Hg) | 8.3 μg per ml | > 4000 mg/kg | 1.7 μg per ml |
| CC1CCc2cc(C(O)C(C)NCCc3ccccc3)ccc2S1 (stereo not drawn) [No 9] | 0.8 μg per ml | +++ | – | 3.3 μg per ml | ~2750 mg/kg | 3.3 μg per ml |
| CC(NCCCc1ccccc1)C(O)c1ccc2c(c1)CCCS2 (stereo not drawn) [No 17] | 1.7 μg per ml | +++ | +++ (reduction higher than 20 mm Hg) | 1.7 μg per ml | > 4000 mg/kg | 0.8 μg per ml |
| CC(NCCOc1ccccc1)C(O)c1ccc2c(c1)CCCS2 (stereo not drawn) [No 20] | 8.3 μg per ml | +++ | +++ (reduction higher than 20 mm Hg) | 3.3 μg per ml | > 4000 mg/kg | 8.3 μg per ml |
| 1-(5-indanyl)-2-(4-phenylbutylamino)-1-propanol [No 163] | 0.8 μg per ml | ++++ | +++ (reduction higher than 20 mm Hg) | 0.8 μg per ml | – | 0.33 μg per ml |
| CC(NCCCCSc1ccccc1)C(O)c1ccc2c(c1)CCCS2 (stereo not drawn) [No 25] | 0.8 μg per ml | – | – | 0.8 μg per ml | > 4000 mg/kg | 0.8 μg per ml |
| CC(NCCC(c1ccccc1)c1ccccc1)C(O)c1ccc2c(c1)CCCS2 (stereo not drawn) [No 16] | 0.33 μg per ml | +++ | ++ (reduction of 10 to 20 mm Hg) | 0.8 μg per ml | > 4000 mg/kg | 0.3 μg per ml |
| CCCCCCCCNC(C)C(O)c1ccc2c(c1)CCCCS2 (stereo not drawn) [No 11] | 3.3 μg per ml | +++ | – | 1.7 μg per ml | 3300 mg/kg | 0.8 μg per ml |
| CCCCCCCCNC(C)C(O)c1ccc2c(c1)CCCS2 (stereo not drawn) [No 1, 1-(6-Thiochromanyl)-2-n-octylamino-1-propanol] | 1.7 μg per ml | ++++ | ++ (reduction of 10 to 20 mm Hg) | 3.3 μg per ml | > 4000 mg/kg | 3.3 μg per ml |
| CC(NC1CCCCCCC1)C(O)c1ccc2c(c1)CCS2 (stereo not drawn) [No 28] | 1.7 μg per ml | + | – | 1.7 μg per ml | 580 mg/kg | 0.8 μg per ml |
| CCCCCCCCNC(C)C(O)c1ccc2c(c1)CCS2 (stereo not drawn) [No 3, 1-(2,3-dihydro-5-benzo[b]thienyl)-2-n-octylamino-1-propanol] | 8.3 μg per ml | +++ | +++ (reduction higher than 20 mm Hg) | 16.7 μg per ml | 4450 mg/kg | 8.3 μg per ml |
| CC1Cc2cc(C(O)C(C)NCCCCc3ccccc3)ccc2S1 (stereo not drawn) [No 19] | 0.8 μg per ml | +++ | +++ (reduction higher than 20 mm Hg) | 1.7 μg per ml | 1550 mg/kg | 0.8 μg per ml |
| CC(C(O)c1ccc2c(c1)CCCS2)N1CCC(Cc2ccccc2)CC1 (stereo not drawn) [No 26] | 0.8 μg per ml | – | +++ (reduction higher than 20 mm Hg) | 1.7 μg per ml | – | 0.017 μg per ml |
| CC(NCCCCOc1ccccc1)C(O)c1ccc2c(c1)CCCS2 (stereo not drawn) [No 24] | 1.7 μg per ml | +++ | – | 1.7 μg per ml | > 4000 mg/kg | 0.33 μg per ml |
| Cc1ccccc1N1CCN(C(C)C(O)c2ccc3c(c2)CCC(C)S3)CC1 (stereo not drawn) [No 10] | 8.3 μg per ml | ++ | +++ (reduction higher than 20 mm Hg) | 16.7 μg per ml | > 4000 mg/kg | 0.33 μg per ml |
| COc1ccc(CCNC(C)C(O)c2ccc3c(c2)CCCS3)cc1OC (stereo not drawn) [No 22] | 8.3 μg per ml | – | – | 8.3 μg per ml | 3700 mg/kg | 3.3 μg per ml |
| Cc1ccccc1N1CCN(C(C)C(O)c2ccc3c(c2)CCCS3)CC1 (stereo not drawn) [No 15] | > 16.7 μg per ml | +++ | +++ (reduction higher than 20 mm Hg) | 3.3 μg per ml | – | 0.8 μg per ml |
| CC(NCCCCc1ccc(Cl)cc1)C(O)c1ccc2c(c1)CCCS2 (stereo not drawn) [No 23] | 0.8 μg per ml | ++++ | +++ (reduction higher than 20 mm Hg) | 1.7 μg per ml | ~2100 mg/kg | 0.8 μg per ml |
| CCCCCCCCNC(C)C(O)c1ccc2c(c1)CCC(C)S2 (stereo not drawn) [No 4] | > 16.7 μg per ml | +++ | – | – | 4000 mg/kg | – |
